Read-outs that look alike come from different tables or passages of the source.
Tests used:
human RORγ = target: T1, human RORγ (Homo sapiens, UniProt P51449); assay: Luciferase reporter gene assay of inhibitory effect against RORγ transcriptional activity (GAL4-hRORγ plasmid in CHO cells); format: cell-based
T1 construct: human, NM_005060.3 and from Ser253 to Lys518; expressed in transfected cells; host or cells: CHO cells (transient co-transfection with pG5-Luc reporter)
T1 sequence (P51449 253-518): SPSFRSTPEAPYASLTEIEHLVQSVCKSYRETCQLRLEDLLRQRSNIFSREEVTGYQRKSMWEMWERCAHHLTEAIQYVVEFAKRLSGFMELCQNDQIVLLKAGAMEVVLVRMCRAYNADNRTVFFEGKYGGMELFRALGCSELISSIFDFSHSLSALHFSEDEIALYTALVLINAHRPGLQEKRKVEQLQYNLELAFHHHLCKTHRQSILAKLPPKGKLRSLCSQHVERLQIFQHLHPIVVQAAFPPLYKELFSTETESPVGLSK

mouse RORγ = target: T2, mouse RORγ (Mus musculus, UniProt P51450); assay: Luciferase reporter gene assay of inhibitory effect against RORγ transcriptional activity (GAL4-mRORγ plasmid in CHO cells); format: cell-based
T2 construct: mouse, NM_011281.2 and from Ile251 to Lys516; expressed in transfected cells; host or cells: CHO cells (transient co-transfection with pG5-Luc reporter)
T2 sequence (P51450 251-516): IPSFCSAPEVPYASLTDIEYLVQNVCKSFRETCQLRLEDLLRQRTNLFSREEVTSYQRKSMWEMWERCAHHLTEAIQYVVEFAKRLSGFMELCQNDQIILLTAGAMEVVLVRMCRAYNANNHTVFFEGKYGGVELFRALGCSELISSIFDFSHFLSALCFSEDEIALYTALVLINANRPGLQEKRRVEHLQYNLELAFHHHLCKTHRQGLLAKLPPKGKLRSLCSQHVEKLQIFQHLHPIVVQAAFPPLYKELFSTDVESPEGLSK
Method in brief: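 CHO cells transiently co-transfected with GAL4-mouse RORγ LBD (Ile251–Lys516) and GAL4-dependent luciferase reporter; eight compound concentrations, 0.1% DMSO, 2 days at 37 °C. Luminescence as %-of-vehicle control; EC50 by curve fit, cytotoxic concentrations excluded.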

Cc1ccc(NC(=O)C[C@@H](C[C@H](O)CO)c2nnc(CCCC(C)C)n2C2CC2)c(C)c1 [Example F-342]
EC50 (human RORγ; read-out: LUC EC50 (μM) hRORg): > 3 µM | EC50 (mouse RORγ; read-out: LUC EC50 (μM) mRORg): > 3 µM

CCC(=O)N1C[C@H](C(=O)Nc2ccc(C)cc2C)[C@@H](c2nnc(CCCC(C)(C)C)n2C2CC2)C1 (racemic) [Example F-400]
EC50 (human RORγ; read-out: LUC EC50 (μM) hRORg): < 3 µM | EC50 (mouse RORγ; read-out: LUC EC50 (μM) mRORg): < 3 µM

Cc1c(Cl)cccc1NC(=O)CC(CC(=O)O)c1nnc(CCCC(C)C)n1C1CC1 (racemic) [Example F-213]
EC50 (human RORγ; read-out: LUC EC50 (μM) hRORg): > 3 µM | EC50 (mouse RORγ; read-out: LUC EC50 (μM) mRORg): > 3 µM

Cc1ccc(NC(=O)CC(CC(=O)N(C)C)c2nnc([C@H]3C[C@@H](CC(C)C)C3)n2C2CC2)c(C)c1 (mixture of isomers) [Example F-500]
EC50 (human RORγ; read-out: LUC EC50 hRORg): < 3 µM | EC50 (mouse RORγ; read-out: LUC EC50 mRORg): < 3 µM

COc1cc(C)ccc1CNC(=O)CCc1nnc(CC[C@H]2CC[C@H](C(F)(F)F)CC2)n1C1CC1 [Example F-251]
EC50 (human RORγ; read-out: LUC EC50 (μM) hRORg): < 3 µM | EC50 (mouse RORγ; read-out: LUC EC50 (μM) mRORg): < 3 µM

CC(=O)N1C[C@H](C(=O)Nc2ccc(Cl)cc2C)[C@@H](c2nnc([C@H]3C[C@@H](CC(C)C)C3)n2C2CC2)C1 [Example F-603]
EC50 (human RORγ; read-out: LUC EC50 hRORg): < 3 µM | EC50 (mouse RORγ; read-out: LUC EC50 mRORg): < 3 µM

Cc1ccc(NC(=O)[C@H]2CN(C)C(=O)[C@@H]2c2nnc(CCCC(C)(C)C)n2C2CC2)c(C)c1 [Example F-303]
EC50 (human RORγ; read-out: LUC EC50 (μM) hRORg): < 3 µM | EC50 (mouse RORγ; read-out: LUC EC50 (μM) mRORg): < 3 µM

Cc1ccc(NC(=O)[C@H]2CC(C)(O)C[C@@H]2c2nnc([C@H]3C[C@@H](CC(C)C)C3)n2C2CC2)c(C)c1 (single isomer, unassigned) [Example F-562]
EC50 (human RORγ; read-out: LUC EC50 hRORg): < 3 µM | EC50 (mouse RORγ; read-out: LUC EC50 mRORg): < 3 µM

COc1c(C)ccc(NC(=O)C[C@H](CCCO)c2noc([C@H]3C[C@@H](CC(C)(C)C)C3)c2C2CC2)c1C [Example F-696]
EC50 (human RORγ; read-out: LUC EC50 hRORg): < 3 µM | EC50 (mouse RORγ; read-out: LUC EC50 mRORg): < 3 µM

Cc1c(Cl)cccc1NC(=O)CCc1nnc(CCOC(C)C)n1C1CC1 [Example F-218]
EC50 (human RORγ; read-out: LUC EC50 (μM) hRORg): > 3 µM | EC50 (mouse RORγ; read-out: LUC EC50 (μM) mRORg): < 3 µM

CC(=O)N[C@@H](CC(=O)Nc1ccc(C)cc1C)c1nnc(CCCC(C)C)n1C1CC1 [Example F-291]
EC50 (human RORγ; read-out: LUC EC50 (μM) hRORg): < 3 µM | EC50 (mouse RORγ; read-out: LUC EC50 (μM) mRORg): < 3 µM

Cc1cc(F)ccc1NC(=O)C[C@H](CC(=O)NS(C)(=O)=O)c1noc([C@H]2C[C@@H](CC(C)C)C2)c1C1CC1 [Example F-637]
EC50 (human RORγ; read-out: LUC EC50 hRORg): < 3 µM | EC50 (mouse RORγ; read-out: LUC EC50 mRORg): < 3 µM

Cc1ccc(NC(=O)C[C@H](CCC(=O)O)c2noc(-c3noc(CCC(C)C)c3Cl)c2C2CC2)c(Cl)c1 [Example E-10]
EC50 (human RORγ; read-out: LUC EC50 (μM) hRORg): < 3 µM | EC50 (mouse RORγ; read-out: LUC EC50 (μM) mRORg): < 3 µM

Cc1ccc(C(F)(F)F)cc1NC(=O)CCc1nnc(CCC(C)C)n1C1CC1 [Example F-151]
EC50 (human RORγ; read-out: LUC EC50 (μM) hRORg): > 3 µM | EC50 (mouse RORγ; read-out: LUC EC50 (μM) mRORg): > 3 µM

Cc1ccc(NC(=O)C[C@H](CCC(=O)O)c2noc(-c3cc(CC(C)C)nn3C)c2C2CC2)c(Cl)c1 [Example E-25]
EC50 (human RORγ; read-out: LUC EC50 (μM) hRORg): > 3 µM | EC50 (mouse RORγ; read-out: LUC EC50 (μM) mRORg): < 3 µM

Cc1ccc(NC(=O)C[C@H](CCC(=O)O)c2noc([C@H]3C[C@@H](CC(C)(C)C)C3)c2C2CC2)c(C)n1 [Example F-673]
EC50 (human RORγ; read-out: LUC EC50 hRORg): < 3 µM | EC50 (mouse RORγ; read-out: LUC EC50 mRORg): < 3 µM

CC(=O)N1C[C@H](C(=O)Nc2ccc(C)cc2C)[C@@H](c2nnc(C3CC4(CCC(F)(F)CC4)C3)n2C2CC2)C1 [Example F-620]
EC50 (human RORγ; read-out: LUC EC50 hRORg): < 3 µM | EC50 (mouse RORγ; read-out: LUC EC50 mRORg): < 3 µM

Cc1c(Cl)cccc1NC(=O)CCc1nnc(CCOC(C)(C)C)n1C1CC1 [Example F-163]
EC50 (human RORγ; read-out: LUC EC50 (μM) hRORg): < 3 µM | EC50 (mouse RORγ; read-out: LUC EC50 (μM) mRORg): < 3 µM

COc1cc(C)ccc1CNC(=O)C[C@H](NC(C)=O)c1nnc(CCCC(C)C)n1C1CC1 [Example F-312]
EC50 (human RORγ; read-out: LUC EC50 (μM) hRORg): > 3 µM | EC50 (mouse RORγ; read-out: LUC EC50 (μM) mRORg): > 3 µM

Cc1ccc(NC(=O)CCc2nnc(C3CC(COC(C)C)C3)n2C2CC2)c(C)c1 (single isomer, unassigned) [Example F-477]
EC50 (human RORγ; read-out: LUC EC50 (μM) hRORg): < 3 µM | EC50 (mouse RORγ; read-out: LUC EC50 (μM) mRORg): < 3 µM

Cc1cc(F)ccc1NC(=O)C[C@H](CCO)c1nnc([C@H]2C[C@@H](CC(F)(F)F)C2)n1C1CC1 [Example F-588]
EC50 (human RORγ; read-out: LUC EC50 hRORg): > 3 µM | EC50 (mouse RORγ; read-out: LUC EC50 mRORg): < 3 µM

COc1ccccc1CNC(=O)CCc1nnc(CCC(C)C)n1C1CC1 [Example F-179]
EC50 (human RORγ; read-out: LUC EC50 (μM) hRORg): > 3 µM | EC50 (mouse RORγ; read-out: LUC EC50 (μM) mRORg): > 3 µM

Cc1ccc(NC(=O)CCc2noc([C@H]3C[C@@H](CC(C)C)C3)c2C2CC2)c(C)c1 [Example F-665]
EC50 (human RORγ; read-out: LUC EC50 hRORg): < 3 µM | EC50 (mouse RORγ; read-out: LUC EC50 mRORg): < 3 µM

Cc1ccc(NC(=O)[C@@H](CC(=O)O)Cc2noc([C@H]3C[C@@H](CC(C)C)C3)c2C2CC2)c(C)c1 [Example F-668]
EC50 (human RORγ; read-out: LUC EC50 hRORg): > 3 µM | EC50 (mouse RORγ; read-out: LUC EC50 mRORg): < 3 µM

CC(C)(C)C(F)(F)c1cc(-c2onc([C@H](CCC(=O)O)CC(=O)Nc3ccc(Cl)cc3F)c2C2CC2)no1 [Example E-80]
EC50 (human RORγ; read-out: LUC EC50 hRORg): < 3 µM | EC50 (mouse RORγ; read-out: LUC EC50 mRORg): < 3 µM
